Columns and labels:
Format in all cases: in vivo
Melodoigyne incognita = assay: Example B14: Melodoigyne incognita juvenile mobility, in vitro profiling in 96 well plate; settings: 200 ppm; after 24 h; second stage juveniles; read-out: control (juvenile mobility)
Procedure: Test solutions are prepared from 10,000 ppm DMSO stock solutions with a TECAN robot to achieve 20 μL of 1000, 200, 100, 50, 25 and 12.5 ppm. For each concentration three replicates are produced. Per well, 80 μL nematode solution is added containing 100 to 150 freshly harvested second stage juveniles of Melodoigyne incognita. The plates are covered and stored at room temperature in the dark and incubated for 24 h. Mobility of the exposed juveniles in a treated well is measured using an imaging tool and compared to an average of 12 untreated replicates.

[1] = tested on: Diabrotica Balteata (Corn Root Worm); assay: Example B2: Diabrotica balteata, maize sprouts, L2 larvae; settings: for percent effect (mortality or growth inhibition) at 200 ppm: Diabrotica balteata, 96 h, application rate of 200 ppm, L2 larvae, 4 days after infestation, read-out: effect in at least one of the two categories (mortality or growth inhibition)
Procedure: Maize sprouts placed onto an agar layer in 24-well microtiter plates were treated with aqueous test solutions prepared from 10,000 ppm DMSO stock solutions by spraying. After drying, the plates were infested with L2 larvae (6 to 10 per well). The samples were assessed for mortality and growth inhibition in comparison to untreated samples 4 days after infestation.

[2] = tested on: Myzus persicae (Green peach aphid); assay: Example B6: Myzus persicae systemic activity, pea seedlings; settings: for mortality at 24 ppm: Myzus persicae, 144 h, test rate of 24 ppm, mixed ages, 6 days after placing seedlings into test solutions, read-out: mortality; for mortality at 1.5 ppm: Concentration 1.5 ppm, Myzus persicae (systemic, Example B6), read-out: Mortality (%)
Procedure: Roots of pea seedlings infested with an aphid population of mixed ages were placed directly into aqueous test solutions prepared from 10,000 DMSO stock solutions. The samples were assessed for mortality 6 days after placing seedlings into test solutions.

[3] = tested on: Bemisia tabaci (Cotton White Fly); assay: Example B1: Bemisia tabaci feeding/contact activity, cotton leaf discs; settings: foliar, 144 h, application rate of 200 ppm, adult white flies, 6 days after incubation
Procedure: Cotton leaf discs were placed on agar in 24-well microtiter plates and sprayed with aqueous test solutions prepared from 10,000 ppm DMSO stock solutions. After drying the leaf discs were infested with adult white flies. The samples were checked for mortality 6 days after incubation.

[4] = tested on: Spodoptera littoralis (Egyptian Cotton Leaf Worm); assay: Example B9: Spodoptera littoralis, cotton leaf discs (mortality, anti-feeding, growth inhibition); settings: foliar, 72 h, application rate of 200 ppm, L1 larvae, 3 days after infestation, read-out: control (mortality, anti-feeding effect or growth inhibition)
Procedure: Cotton leaf discs were placed onto agar in 24-well microtiter plates and sprayed with aqueous test solutions prepared from 10,000 ppm DMSO stock solutions. After drying the leaf discs were infested with five L1 larvae. The samples were assessed for mortality, anti-feeding effect, and growth inhibition in comparison to untreated samples 3 days after infestation. Control of Spodoptera littoralis by a test sample is given when at least one of the categories mortality, anti-feedant effect, and growth inhibition is higher than the untreated sample.

[5] = tested on: Euschistus heros (Neotropical Brown Stink Bug); assay: Example B3: Euschistus heros, soybean leaves, N2 nymphs; settings: for percent effect (mortality or growth inhibition) at 200 ppm: Euschistus heros, 120 h, application rate of 200 ppm, N2 nymphs, 5 days after infestation, read-out: effect in at least one of the two categories (mortality or growth inhibition); for mortality at 50 ppm: Concentration 50 ppm, Euschistus heros (Example B3), read-out: Mortality (%)
Procedure: Soybean leaves on agar in 24-well microtiter plates were sprayed with aqueous test solutions prepared from 10,000 ppm DMSO stock solutions. After drying the leaves were infested with N2 nymphs. The samples were assessed for mortality and growth inhibition in comparison to untreated samples 5 days after infestation.

[6] = tested on: Myzus persicae (Green peach aphid); assay: Example B5: Myzus persicae feeding/contact activity, sunflower leaf discs; settings: foliar; for mortality at 200 ppm: Myzus persicae, 144 h, application rate of 200 ppm, mixed ages, 6 days after infestation, read-out: mortality; for mortality at 12.5 ppm: Concentration 12.5 ppm, Myzus persicae (feeding/contact, Example B5), read-out: Mortality (%)
Procedure: Sunflower leaf discs were placed onto agar in a 24-well microtiter plate and sprayed with aqueous test solutions prepared from 10,000 ppm DMSO stock solutions. After drying, the leaf discs were infested with an aphid population of mixed ages. The samples were assessed for mortality 6 days after infestation.

[7] = tested on: Plutella xylostella (Diamond Back Moth); assay: Example B7: Plutella xylostella, artificial diet, L2 larvae; settings: 120 h, application rate of 200 ppm, L2 larvae, 5 days after infestation, read-out: effect in at least one of the two categories (mortality or growth inhibition)
Procedure: 24-well microtiter plates with artificial diet were treated with aqueous test solutions prepared from 10,000 ppm DMSO stock solutions by pipetting. After drying, the plates were infested with L2 larvae (10 to 15 per well). The samples were assessed for mortality and growth inhibition in comparison to untreated samples 5 days after infestation.

[8] = tested on: Tetranychus urticae (Two-Spotted Spider Mite); assay: Example B10: Tetranychus urticae feeding/contact activity, bean leaf discs; settings: foliar, 192 h, application rate of 200 ppm, mixed population (mobile stages), 8 days after infestation
Procedure: Bean leaf discs on agar in 24-well microtiter plates were sprayed with aqueous test solutions prepared from 10,000 ppm DMSO stock solutions. After drying the leaf discs were infested with a mite population of mixed ages. The samples were assessed for mortality on mixed population (mobile stages) 8 days after infestation.

[9] = tested on: Frankliniella occidentalis (Western Flower Thrips); assay: Example B4: Frankliniella occidentalis feeding/contact activity, sunflower leaf discs; settings: foliar, 168 h, application rate of 200 ppm, mixed ages, 7 days after infestation
Procedure: Sunflower leaf discs were placed on agar in 24-well microtiter plates and sprayed with aqueous test solutions prepared from 10,000 DMSO stock solutions. After drying the leaf discs were infested with a Frankliniella population of mixed ages. The samples were assessed for mortality 7 days after infestation.

| SMILES | pest or weed control at 200 ppm (Melodoigyne incognita) | percent effect (mortality or growth inhibition) at 200 ppm [1] | mortality at 24 ppm [2] | mortality at 200 ppm [3] | percent control (mortality, anti-feedant effect or growth inhibition) at 200 ppm [4] | percent effect (mortality or growth inhibition) at 200 ppm [5] | mortality at 200 ppm [6] | percent effect (mortality or growth inhibition) at 200 ppm [7] | mortality at 200 ppm [8] | mortality at 200 ppm [9] | Mortality (%) ([1]; Concentration 200 ppm, Diabrotica balteata (Example B2), listed as drawing 154) | mortality at 1.5 ppm [2] | mortality at 50 ppm [5] | mortality at 12.5 ppm [6] |
| --- | --- | --- | --- | --- | --- | --- | --- | --- | --- | --- | --- | --- | --- | --- |
| CCS(=O)(=O)c1cc(N(C)C(=O)CSC)cnc1-c1nc2cc(C(F)(F)F)ncc2n1C [P14, N-[5-ethylsulfonyl-6-[3-methyl-6-(trifluoromethyl)imidazo[4,5-c]pyridin-2-yl]-3-pyridyl]-N-methyl-2-methylsulfanyl-acetamide] | ≥ 80% | ≥ 80% | ≥ 80% | ≥ 80% | ≥ 80% | ≥ 80% | ≥ 80% | – | – | – | – | – | – | – |
| CCS(=O)(=O)c1cc(N(C)C(=O)C(C)C)cnc1-c1nc2cc(C(F)(F)F)ncc2n1C [P27, N-[5-ethylsulfonyl-6-[3-methyl-6-(trifluoromethyl)imidazo[4,5-c]pyridin-2-yl]-3-pyridyl]-N,2-dimethyl-propanamide] | ≥ 80% | – | ≥ 80% | ≥ 80% | – | ≥ 80% | ≥ 80% | ≥ 80% | – | – | – | – | – | – |
| CCS(=O)(=O)c1cc(N(C(C)=O)C2(C#N)CC2)cnc1-c1nc2cc(C(F)(F)F)ncc2n1C [P42, N-(1-cyanocyclopropyl)-N-[5-ethylsulfonyl-6-[3-methyl-6-(trifluoromethyl)imidazo[4,5-c]pyridin-2-yl]-3-pyridyl]acetamide] | ≥ 80% | – | ≥ 80% | – | ≥ 80% | ≥ 80% | ≥ 80% | ≥ 80% | ≥ 80% | – | – | – | – | – |
| CCS(=O)(=O)c1cc(NC(C)=O)cnc1-c1nc2cc(C(F)(F)F)ncc2n1C [P4, N-[5-ethylsulfonyl-6-[3-methyl-6-(trifluoromethyl)imidazo[4,5-c]pyridin-2-yl]-3-pyridyl]acetamide] | – | ≥ 80% | ≥ 80% | – | – | ≥ 80% | ≥ 80% | – | – | ≥ 80% | 100% | – | – | – |
| CCS(=O)(=O)c1cc(N(C)C(=O)C(F)F)cnc1-c1nc2cc(C(F)(F)F)ncc2n1C [P13, N-[5-ethylsulfonyl-6-[3-methyl-6-(trifluoromethyl)imidazo[4,5-c]pyridin-2-yl]-3-pyridyl]-2,2-difluoro-N-methyl-acetamide] | ≥ 80% | ≥ 80% | ≥ 80% | – | ≥ 80% | ≥ 80% | ≥ 80% | ≥ 80% | ≥ 80% | – | – | – | – | – |
| CCS(=O)(=O)c1cc(N(C)C(=O)C2(C#N)CC2)cnc1-c1nc2cc(C(F)(F)F)ncc2n1C [P38, 1-cyano-N-[5-ethylsulfonyl-6-[3-methyl-6-(trifluoromethyl)imidazo[4,5-c]pyridin-2-yl]-3-pyridyl]-N-methyl-cyclopropanecarboxamide] | ≥ 80% | ≥ 80% | ≥ 80% | – | – | ≥ 80% | ≥ 80% | ≥ 80% | ≥ 80% | – | – | – | – | – |
| CCC(=O)N(C)c1cnc(-c2nc3cc(C(F)(F)F)ncc3n2C)c(S(=O)(=O)CC)c1 [P23, N-[5-ethylsulfonyl-6-[3-methyl-6-(trifluoromethyl)imidazo[4,5-c]pyridin-2-yl]-3-pyridyl]-N-methyl-propanamide] | ≥ 80% | ≥ 80% | ≥ 80% | – | ≥ 80% | ≥ 80% | ≥ 80% | ≥ 80% | ≥ 80% | – | – | 100% | 100% | 90% |
| CCS(=O)(=O)c1cc(N(C)C(=O)C(C)(C)C#N)cnc1-c1nc2cc(C(F)(F)F)ncc2n1C [P43, 2-cyano-N-[5-ethylsulfonyl-6-[3-methyl-6-(trifluoromethyl)imidazo[4,5-c]pyridin-2-yl]-3-pyridyl]-N,2-dimethyl-propanamide] | ≥ 80% | ≥ 80% | ≥ 80% | – | ≥ 80% | ≥ 80% | ≥ 80% | ≥ 80% | – | ≥ 80% | – | – | – | – |
| CCN(C(C)=O)c1cnc(-c2nc3cc(C(F)(F)F)ncc3n2C)c(S(=O)(=O)CC)c1 [P21, N-ethyl-N-[5-ethylsulfonyl-6-[3-methyl-6-(trifluoromethyl)imidazo[4,5-c]pyridin-2-yl]-3-pyridyl]acetamide] | ≥ 80% | ≥ 80% | ≥ 80% | – | – | ≥ 80% | ≥ 80% | – | ≥ 80% | ≥ 80% | – | 100% | 100% | 100% |
| CCS(=O)(=O)c1cc(N(C)C(=O)C2CC2)cnc1-c1nc2cc(C(F)(F)F)ncc2n1C [P9, N-[5-ethylsulfonyl-6-[3-methyl-6-(trifluoromethyl)imidazo[4,5-c]pyridin-2-yl]-3-pyridyl]-N-methyl-cyclopropanecarboxamide] | ≥ 80% | ≥ 80% | ≥ 80% | – | ≥ 80% | ≥ 80% | ≥ 80% | ≥ 80% | – | ≥ 80% | – | – | – | – |
| CCS(=O)(=O)c1cc(N(C(C)=O)C2CC2)cnc1-c1nc2cc(C(F)(F)F)ncc2n1C [P10, N-cyclopropyl-N-[5-ethylsulfonyl-6-[3-methyl-6-(trifluoromethyl)imidazo[4,5-c]pyridin-2-yl]-3-pyridyl]acetamide] | ≥ 80% | ≥ 80% | ≥ 80% | – | ≥ 80% | ≥ 80% | ≥ 80% | ≥ 80% | – | – | – | – | – | – |
